From PMC3636874, “An Antedrug of the CXCL12 Neutraligand Blocks Experimental Allergic Asthma without Systemic Effect in Mice” (The Journal of Biological Chemistry, 2013)
≈ marks a conversion by molar mass, not a printed value.

Assays:
[1] = Thermodynamic solubility (HPLC); type: physicochemical; conditions: for solubility: phosphate-buffered saline, PBS pH 7.4, 21 °C, 24 h shaking (CN-chalcone 4: 2 h, estimate), read-out: solubility in saline buffer; for maximal concentration dissolved with HP-βCD: physiological solution with 10% HP-βCD, 21 °C (CN-chalcone 4: 2 h, estimate)
Experimental: (§1) Solubility and stability studies were performed on a Gilson HPLC system with a photodiode array detector, an autosampler, and a Valco injector. Data acquisition and processing were performed with Trilution LC version 2.0 software. Measurements were carried out at 21 ± 1 °C. A 2.6-μm Kinetex column (50 × 4.6 mm) was used for stability studies in biological media, and a 5-μm Luna C18(2) column (50 × 4.6 mm) was used for solubility and chemical stability analysis. Both columns were purchased from Phenomenex. The injection volume was 20 μl, the mobile phase flow rate was 2 ml/min, and the following program was applied for the elution: 0–0.2 min, 0% B; 0.2–2.7 min, 0–100% B; 2.7–3.2 min, 100% B; 3.2–3.4 min, 100–0% B; 3.4–6.1 min, 0% B. Solvent B was HPLC grade acetonitrile (Sigma-Aldrich CHROMASOLV). The aqueous solvent contained 0.1% trifluoroacetic acid, and the detection wavelength was 365 nm.
Thermodynamic solubility was measured by dissolving the compounds up to saturation in a pH 7.4 phosphate-buffered saline (PBS) with the following composition: 137.5 mM NaCl, 2.7 mM KCl, 4.3 mM Na2HPO4, and 1.4 mM KH2PO4 supplemented or not with 10% hydroxypropyl-β-cyclodextrin (HP-βCD). Samples were shaken for 24 h at 21 ± 1 °C. Saturation was confirmed by the presence of undissolved powder. After ultracentrifugation, the concentration in the supernatant was measured by an HPLC procedure using a calibration curve established for each compound by diluting a 10 mM DMSO stock solution to adapted concentrations. Due to rapid degradation of CN-chalcone 4, solubility was determined after 2 h of shaking. The indicated value given for CN-chalcone 4 is thus an estimate of the solubility.

[2] = Stability in mouse lung homogenate; type: in vitro ADME; conditions: 37 °C; for half-life at 20 μM: mouse, mouse lung homogenate
Experimental: as §1
Stability of chalcones was determined in mouse lung homogenate with or without HP-βCD 10% at 37 °C. Lung homogenate was prepared separately with a Fastprep® (Q-BIOgene, Illkirch, France) in PBS (one lung homogenized in 1 ml of buffer). For each compound, the incubation solutions, the sampling, and the extraction conditions were prepared as described under “Stability in Mouse Serum.”

[3] = tested on: CXCL12 action on forskolin-evoked cAMP responses via CXCR4; test: cAMP determination with BRET sensor CAMYEL in HEK EGFP-hCXCR4 cells; type: cell-based; conditions: Homo sapiens; HEK293 EGFP-hCXCR4, 1 μM forskolin, 3 nM CXCL12; read-out: IC50, inhibition of CXCL12 effect on forskolin-evoked cAMP formation
Experimental: CXCR4 receptor coupling to adenylyl cyclase was assessed by measuring the dose-dependent inhibitory effects of chemokine with or without chalcone on forskolin-stimulated cAMP accumulation. To facilitate studies of cAMP regulation, we used a developed bioluminescence resonance energy transfer (BRET) sensor for cAMP, CAMYEL (cAMP sensor using YFP-Epac-RLuc), which can quantitatively and rapidly monitor intracellular concentrations of cAMP in cells ([47]). HEK EGFP-hCXCR4 cells were cultured to ∼80% confluence in 75-cm^2 flasks in MEM with Earle's salt supplemented with 10% fetal calf serum, 2 mM glutamine, and 1% antibiotics (penicillin/streptomycin). Cells were plated on 10-cm plates and transfected with 10 μg of CAMYEL plasmid using the calcium phosphate precipitation method. Two days later, cells were plated in 96-well solid white tissue culture plates (Greiner) at a density of 60,000 cells/well the day before cAMP assay. […] The BRET assay was carried out with a Victor Light plate reader (PerkinElmer Life Sciences). Emission signals from Renilla luciferase and YFP were measured sequentially using a BRET1 filter set (475-30/535-30). […] After 5 min, 10 μl of a Hanks' balanced salt solution of coelenterazine-H (2 μM) were added, and plates were incubated for 10 min at 37 °C before reading.

[4] = Stability in mouse serum; type: in vitro ADME; conditions: 37 °C; for half-life at 20 μM: mouse, mouse serum
Experimental: as §1
Stability of chalcones was determined in mouse serum with or without 10% HP-βCD at 37 °C up to 16 h. For each compound, the 10 mM DMSO stock solution was diluted in serum to a final concentration of 20 μM with 1% DMSO. For the measurements with HP-β-cyclodextrin, a solution of PBS (pH 7.4) containing 10% (v/w) HP-βCD was saturated with compound powder. The saturated solution was then diluted in murine serum to a final compound concentration of 20 μM. The mixture was divided into five aliquots. The incubation of each aliquot was stopped at t0 and 30 min, 1, 2, and 16 h for chalcone 4 and at t0 and 15, 30, 45, and 60 min for CN-chalcone 4 by adding one volume of ice cold acetonitrile. Samples were stirred for 3 min, sonicated for 3 min, and then centrifuged at 4 °C before HPLC injection. The percentage of remaining test compound relative to t0 was measured by monitoring the peak area on the chromatogram.

[5] = with 10% HP-βCD, read-out: Stability half-life (t1/2), lung homogenate, 10% β-cyclodextrine (converted)
[6] = 20 μM, with 10% HP-βCD, read-out: Stability half-life (t1/2), murine serum, 10% β-cyclodextrine (converted)
[7] = 20 μM, read-out: Stability half-life (t1/2), murine serum (converted)

| SMILES | solubility [1] | maximal concentration dissolved with HP-βCD [1] | half-life at 20 μM ([2]; 10% HP-βCD, read-out: half-life in lung homogenate in the presence of HP-βCD) | half-life at 20 μM [2, 5] | half-life at 20 μM ([2]; read-out: Stability half-life (t1/2), lung homogenate (converted)) | half-life at 20 μM ([2]; read-out: t½ in lung homogenate) | IC50 [3] | half-life at 20 μM [4, 6] | half-life at 20 μM [4, 7] | half-life at 20 μM ([4]; read-out: t½ in murine serum) | percentage of starting molecule recovered, lung homogenate, 10% β-cyclodextrine ([2]; at 16 h) | percentage of starting molecule recovered, murine serum ([4]; at 16 h) | percentage of starting molecule recovered, murine serum, 10% β-cyclodextrine ([4]; at 16 h) |
| --- | --- | --- | --- | --- | --- | --- | --- | --- | --- | --- | --- | --- | --- |
| COc1cc(/C=C(\C#N)C(=O)c2ccc(Cl)cc2)ccc1O [CN-chalcone 4, (E)-2-(4-chlorobenzoyl)-3-(4-hydroxy-3-methoxyphenyl)acrylonitrile] | 16 ± 2 µM (≈ 5.02 µg/mL) | 493 ± 36 µM | 40 min | 36 min | 24 min | 25 min | 6.9 ± 0.4 µM | 78 min | 18 min | 20 min |  |  |  |
| COc1cc(/C=C/C(=O)c2ccc(Cl)cc2)ccc1O [chalcone 4] | 9 ± 1 µM (≈ 2.6 µg/mL) | 690 ± 44 µM |  | > 960 min |  |  | 4.1 ± 0.3 µM | > 960 min | > 960 min |  | 66% | 96% | 91% |
